Source: US10786542B2 (priority 2016, dated 2020)
Where two headings read alike, the source gives them in different places.

Assays:
MRP1 = MRP1 (Homo sapiens, UniProt P33527); test: cell-based
A549 cells = test: cells; type: cell-based; conditions: for IC50: Homo sapiens
HEK control cells = test: cells; type: cell-based; conditions: Homo sapiens
in vitro = conditions: human, IC50 etoposide-induced growth inhibition
[1] = A549, read-out: IC50 growth inhibition, co-treatment with 10 nM HN2
[2] = A549, read-out: IC50 growth inhibition, drug alone

Sequence of MRP1 (P33527 whole entry): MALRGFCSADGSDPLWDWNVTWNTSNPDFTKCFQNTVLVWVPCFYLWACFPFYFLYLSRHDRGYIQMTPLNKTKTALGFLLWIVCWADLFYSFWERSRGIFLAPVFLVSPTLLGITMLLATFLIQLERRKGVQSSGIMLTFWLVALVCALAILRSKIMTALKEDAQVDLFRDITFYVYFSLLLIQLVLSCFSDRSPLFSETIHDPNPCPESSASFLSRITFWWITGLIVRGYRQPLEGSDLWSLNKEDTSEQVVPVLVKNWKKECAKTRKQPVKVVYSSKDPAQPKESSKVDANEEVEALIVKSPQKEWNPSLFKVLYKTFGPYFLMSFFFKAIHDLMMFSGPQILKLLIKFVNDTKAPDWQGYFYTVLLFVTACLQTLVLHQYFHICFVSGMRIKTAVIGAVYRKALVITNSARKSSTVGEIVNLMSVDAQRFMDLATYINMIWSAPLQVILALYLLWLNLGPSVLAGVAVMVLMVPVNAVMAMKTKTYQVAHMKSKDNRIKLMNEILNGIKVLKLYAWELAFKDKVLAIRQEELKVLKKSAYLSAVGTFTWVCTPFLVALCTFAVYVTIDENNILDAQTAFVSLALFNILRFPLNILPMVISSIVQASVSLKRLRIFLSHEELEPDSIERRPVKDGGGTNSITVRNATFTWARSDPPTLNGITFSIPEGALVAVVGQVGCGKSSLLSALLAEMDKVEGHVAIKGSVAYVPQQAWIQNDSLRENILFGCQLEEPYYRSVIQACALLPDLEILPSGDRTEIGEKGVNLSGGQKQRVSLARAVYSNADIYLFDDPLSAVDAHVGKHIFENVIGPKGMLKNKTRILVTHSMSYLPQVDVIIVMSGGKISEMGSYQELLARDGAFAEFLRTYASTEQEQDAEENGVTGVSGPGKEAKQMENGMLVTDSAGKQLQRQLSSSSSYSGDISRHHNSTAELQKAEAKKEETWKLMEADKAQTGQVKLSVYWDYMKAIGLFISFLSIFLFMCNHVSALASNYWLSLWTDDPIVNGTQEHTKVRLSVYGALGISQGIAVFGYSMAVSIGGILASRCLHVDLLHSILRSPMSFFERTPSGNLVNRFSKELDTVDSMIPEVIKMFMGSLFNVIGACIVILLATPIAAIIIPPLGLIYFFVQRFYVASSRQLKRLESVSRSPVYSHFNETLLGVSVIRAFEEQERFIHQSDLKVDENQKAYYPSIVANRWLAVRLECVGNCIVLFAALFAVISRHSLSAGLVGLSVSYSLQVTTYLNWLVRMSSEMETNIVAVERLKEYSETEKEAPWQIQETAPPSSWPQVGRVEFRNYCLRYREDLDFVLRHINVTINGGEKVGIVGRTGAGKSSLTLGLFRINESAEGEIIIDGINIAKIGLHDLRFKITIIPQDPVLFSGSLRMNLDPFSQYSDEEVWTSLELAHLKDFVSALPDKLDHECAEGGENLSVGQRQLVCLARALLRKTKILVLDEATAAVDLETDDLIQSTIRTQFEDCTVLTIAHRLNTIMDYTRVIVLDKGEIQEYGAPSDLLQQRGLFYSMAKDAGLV

Row | SMILES | IC50 (A549 cells; [1]) | IC50 (A549 cells; [2]) | also measured
1 | CCOC(=O)C#CC(=O)OCC [diethyl acetylenedicarboxylate] | – | – | IC50 (MRP1): 6 nM
2 | CN(Cc1cnc2nc(N)nc(N)c2n1)c1ccc(C(=O)N[C@@H](CCC(=O)O)C(=O)O)cc1 [Methotrexate, methotrexate] | 48 nM | 230 nM | –
3 | COc1cc([C@@H]2c3cc4c(cc3[C@@H](O[C@@H]3O[C@@H]5CO[C@@H](C)O[C@H]5[C@H](O)[C@H]3O)[C@H]3COC(=O)[C@H]23)OCO4)cc(OC)c1O [etoposide] | 75 nM | 1000 nM | IC50 (HEK control cells; read-out: IC50 etoposide-induced growth inhibition, co-treatment with 3 nM HN2): 47 nM; IC50 (HEK control cells; read-out: IC50 etoposide-induced growth inhibition, etoposide alone): 55 nM; IC50 (in vitro; co-treated with 10 nM HN2): 42 nM; IC50 (in vitro; etoposide alone): 960 nM
4 | CN(C)C(=O)CCSC(SCCC(=O)O)c1cccc(/C=C/c2ccc3ccc(Cl)cc3n2)c1 (stereo not drawn) [MK-571] | – | – | Increase in sensitivity to MRP1 substrate drugs (A549 cells): six-fold
5 | CC[C@]1(O)C[C@H]2CN(CCc3c([nH]c4ccccc34)[C@@](C(=O)OC)(c3cc4c(cc3OC)N(C=O)[C@H]3[C@@](O)(C(=O)OC)[C@H](OC(C)=O)[C@]5(CC)C=CCN6CC[C@]43[C@@H]65)C2)C1 [Vincristine, vincristine] | 45 nM | 360 nM | –
